Experimental data taken from article PMC9025851, “Polyphenolic Compounds from Lespedeza bicolor Protect Neuronal Cells from Oxidative Stress” (Antioxidants, 2022).
Read-outs that look alike come from different tables or passages of the source.

Tests used:
neuronal HT22 cells = tested on: neuronal HT22 cells; set-up: method as in PMID 33397834; settings: cited from earlier work; for Neuroprotective effect against glutamate-induced neurotoxicity: HT22 cells
MAO-B = tested on: MAO-B; set-up: method as in PMID 27575476, PMID 32087226; settings: cited from earlier work
MAO-A = tested on: MAO-A; set-up: method as in PMID 27575476, PMID 32087226; settings: cited from earlier work
[1] = Ferric reducing antioxidant power (FRAP) assay; settings: 4 min, absorbance 595 nm; mean ± SEM, n = 3
Protocol: We performed the FRAP assay as described in [29]. We prepared the FRAP reagent by mixing 2.5 mL of TPTZ (2,4,6-tris(2-pyridyl)-s-triazine) solution (10 mM) in 40 mM HCl and 25 mL of FeCl3 solution (20 mM) in acetate buffer solution (300 mM, pH 3.6). Polyphenolics 7–11 were added to 3 mL of FRAP reagent at concentrations from 6 to 34 µM. The mixture was kept in the dark at room temperature for 4 min. Then, we measured the absorbance at 595 nm using a Shimadzu UV 1240 spectrophotometer. Equation (2) was used to calculate the FRAP values for polyphenolic compounds 7–11:(2) FRAP=CFe/Cx where CFe is the concentration of Fe^2+ (µM) formed in the reaction; CX is the concentration of polyphenolic compounds in the reacting mixture.
The concentration of Fe^2+ (µM) formed in the reaction was determined using the calibration curve obtained for different concentrations of FeSO4·7H2O.

[2] = DPPH radical-scavenging effect; settings: 30 min; DPPH• 10^−4 M in MeOH; mean ± SEM, n = 3; read-out: DPPH-Scavenging Effect SC50
Protocol: The 2,2-diphenyl-1-picrylhydrazyl (DPPH^•) radical-scavenging effect of polyphenolic compounds 7–11 was determined as described in [24]. Polyphenolic compounds 7, 8, 9, 10, and 11 were added to DPPH^• solution in MeOH (10^−4 M) at concentrations from 6 to 34 µM. The reacting mixture was kept in the dark for 30 min at room temperature. Then, we measured the absorbance at 517 nm using a Shimadzu UV 1240 spectrophotometer (Shimadzu, Kyoto, Japan). Equation (1) was used to calculate the DPPH^• radical-scavenging effect (%):(1) DPPH^• scavenging effect,%=A0−Ax/A0 where A0 is the absorbance of DPPH^• solution of a blank sample (without polyphenolic compounds); AX is the absorbance of DPPH^• solution in the presence of different concentrations of polyphenolic compounds.
Quercetin was used as a reference compound. All experiments were performed in triplicate. We calculated the half-maximal scavenging concentration (SC50) for polyphenolic compounds by plotting the DPPH^• scavenging effect (%) against the concentrations of polyphenolic compounds. SC50 values are given as the mean value ± SEM.

Cytotoxicity, MTT assay = assay type: cell-based, murine; settings: mouse, Neuro-2a neuroblastoma cells, read-out: Cytotoxic activity EC50
Protocol: The murine neuroblastoma cell line Neuro-2a (CCL-131) was purchased from American Type Culture Collection (ATCC®) (Manassas, VA, USA). Cells were cultured in Dulbecco’s Modified Eagle Medium (Biolot, St. Petersburg, Russia). The medium contained 10% fetal bovine serum (Biolot, St. Petersburg, Russia) and 1% penicillin/streptomycin (Biolot, St. Petersburg, Russia). Cells were incubated at 37 °C in a humidified atmosphere containing 5% (v/v) CO2.
Stock solutions of polyphenolic compounds were prepared in DMSO at a concentration of 10 mM. […]
We incubated Neuro-2a cells (1 × 10^4 cells/well) at 37 °C in a CO2 incubator for 24 h until they formed an adherent monolayer. Then, 20 μL of the tested solution was loaded onto the cells and incubated for 24 h. After incubation, the medium containing the polyphenolic test compounds was replaced by 100 μL of fresh medium. Then, we added 10 μL of MTT (3-(4,5-dimethylthiazol-2-yl)-2,5-diphenyltetrazolium bromide) (Sigma-Aldrich, St. Louis, MO, USA) stock solution (5 mg/mL) to each well and incubated the microplate for 4 h. Then, 100 μL of SDS-HCl solution (1 g SDS/10 mL dH2O/17 μL 6 M HCl) was added to each well, followed by incubation for 18 h. We measured the absorbance of the converted dye formazan on a Multiskan FC microplate photometer (Thermo Scientific, Waltham, MA, USA) at a wavelength of 570 nm. We performed all experiments in triplicate and expressed the cytotoxic activity as percent of living cells.

[3] = set-up: method as in PMID 31004693; settings: 30 min; mean ± SEM, n = 3; previously published; read-out: DPPH-Scavenging Effect SC50; cited from earlier work
[4] = set-up: method as in PMID 31004693; settings: mean ± SEM, n = 3; previously published; cited from earlier work
[5] = tested on: PQ-treated Neuro-2a cells; assay: PQ-induced neurotoxicity, cell viability (MTT); assay type: cell-based, murine; settings: PQ 1 mM; for Effect on percentage of living cells after treatment with PQ: compounds 0.01–10 μM, 1 h pre-treatment, MTT after 24 h; for Increase in percentage of living cells after treatment with PQ: MTT
Protocol: (§1) After 24 h of adhesion, Neuro-2a cells (1 × 10^4 cells/well) were treated with polyphenolic compounds at concentrations of 0.01–10 μM for 1 h. Subsequently, 1 mM of PQ, 10 μM rotenone or 80 μM of 6-OHDA (Sigma-Aldrich, St. Louis, MO, USA) were added. We used MTT assay to determine the percentage of living cells (cell viability) after 24 h of incubation. Cells incubated without inductors or with inductors were used as positive and negative control, respectively. The results are presented as percentages of the positive control value.

[6] = tested on: 6-OHDA-treated Neuro-2a cells; assay: ROS level in 6-OHDA-treated cells (H2DCF-DA); assay type: cell-based, murine; settings: 6-OHDA 80 µM; for Effect on ROS levels in 6-OHDA-treated cells: 1 h, H2DCF-DA
Protocol: After 24 h of adhesion, Neuro-2a cells (1 × 10^4 cells/well) were incubated with compounds (0.01–10 µM) for 1 h. Then, we added rotenone (10 μM), 6-OHDA (80 μM), or PQ (1 mM) to each well and incubated cells for 1 h, 1 h, or 3 h, respectively. To evaluate the level of intracellular ROS, we added 20 µL of 2,7-dichlorodihydrofluorescein diacetate solution ([…], H2DCF-DA, Molecular Probes, Eugene, OR, USA) to each well, so that the final concentration was 10 µM, and incubated the microplate at 37 °C for an additional 30 min. Quercetin was used as a reference compound.

[7] = tested on: 6-OHDA-treated Neuro-2a cells; assay: 6-OHDA-induced neurotoxicity, cell viability (MTT); assay type: cell-based, murine; settings: 6-OHDA 80 µM, p < 0.05
Protocol: as §1

[8] = tested on: PQ-treated Neuro-2a cells; assay: Mitochondrial membrane potential (TMRM) in PQ-treated cells; assay type: cell-based, murine; settings: for Increase in mitochondrial membrane potential: compound 10 µM, PQ-treated Neuro-2a, TMRM
Protocol: The cells were incubated for 1 h in a 96-well plate (1 × 10^4 cells/well) with polyphenolic compounds (1 and 10 µM). Then, PQ (500 µM) was added, and the cell suspension was incubated for 1 h. Cells incubated without PQ and compounds were used as positive control, and cells with PQ alone were used as negative control. We added the tetramethylrhodamine methyl (TMRM) (Sigma-Aldrich, St. Louis, MO, USA) solution (500 nM) to each well, and incubated cells for 30 min at 37 °C. After the incubation, we measured the intensity of fluorescence with a PHERAstar FSplate reader (BMG Labtech, Ortenberg, Germany) at λex = 540 nm and λem = 590 nm. We processed the data using MARS Data Analysis v3.01R2 (BMG Labtech, Ortenberg, Germany) and presented results as percentages of the positive control value.

Molecule: 2-geranyl-1-methoxylespeflorin G11
- Neuroprotective effect against glutamate-induced neurotoxicity (neuronal HT22 cells): significant neuroprotective effects
- Apoptosis in HT22 cells (neuronal HT22 cells; by inhibiting intracellular ROS generation and mitochondrial dysfunction): attenuate

Molecule: 2-geranylbicolosin A
- Neuroprotective effect against glutamate-induced neurotoxicity (neuronal HT22 cells): significant neuroprotective effects

Molecule: COc1c(CC=C(C)C)c(O)cc2c1C1Oc3c(ccc(O)c3CC=C(C)C)C1CO2 (centres unmarked) [1-methoxyerythrabyssin II]
- Neuroprotective effect against glutamate-induced neurotoxicity (neuronal HT22 cells): significant neuroprotective effects

Molecule: COc1cc(O)cc2c1C1Oc3c(ccc(O)c3CC=C(C)C)C1CO2 (centres unmarked) [1-methoxylespeflorin G11]
- Neuroprotective effect against glutamate-induced neurotoxicity (neuronal HT22 cells): significant neuroprotective effects

Molecule: COc1cc2c(cc1O)OC1c3c(OC)cc(O)c(C/C=C(\C)CCC=C(C)C)c3OCC21 (centres unmarked) [8-methoxybicolosin C]
- Neuroprotective effect against glutamate-induced neurotoxicity (neuronal HT22 cells): significant neuroprotective effects

Molecule: COc1ccc2c(c1O)OC[C@H]1c3cc4c(cc3O[C@@H]21)OCO4 [(–)-4-hydroxy-3-methoxy-8,9-methylenedioxypterocarpan]
- Inhibition of MAO-B (MAO-B): effectively inhibit
- Inhibition of MAO-A (MAO-A): effectively inhibit

Molecule: O=C1O[C@H]([C@@H](O)CO)C(O)=C1O [Ascorbic acid, reference compound]
- FRAP [1]: 3.43 ± 0.33 mol (Fe^2+)/mol (polyphenolic compound X)
- EC50 [2]: 30.5 ± 2.1 µM

Molecule: CC(C)=CCC/C(C)=C/Cc1c(O)c(O)cc2c1O[C@H]1c3ccc(O)cc3OC[C@@H]21 [Compound 1, (6aR,11aR)-6a,11a-dihydrolespedezol A2]
- EC50 at 24 h (Cytotoxicity, MTT assay): 72 µM
- EC50 [3]: 24.3 ± 3.7 µM
- FRAP [4]: 1.78 ± 0.16 mol (Fe^2+)/mol (polyphenolic compound X)
- Effect on percentage of living cells after treatment with PQ [5]: did not exhibit any effect

Molecule: CC(C)=CCC[C@@]1(C)C=Cc2c(c(O)cc3c2O[C@H]2c4ccc(O)cc4OC[C@@H]32)O1 [Compound 2, (6aR,11aR,3′S)-6a,11a-dihydrolespedezol A3]
- Decrease of ROS level compared to 6-OHDA-treated cells [6]: 4.5 times
- Effect on ROS levels in 6-OHDA-treated cells [6]: significantly decreased
- EC50 at 24 h (Cytotoxicity, MTT assay): 75 µM
- Increase in percentage of living cells after 6-OHDA treatment versus 6-OHDA-treated cells [7]: 8.7%
- EC50 [3]: 25 ± 2.2 µM
- FRAP [4]: 1.31 ± 0.02 mol (Fe^2+)/mol (polyphenolic compound X)
- Effect on percentage of living cells after treatment with PQ [5]: did not exhibit any effect

Molecule: CC(C)=CCC[C@]1(C)C=Cc2c(c(O)cc3c2O[C@H]2c4ccc(O)cc4OC[C@@H]32)O1 [Compound 3, 6aR,11aR,3′R-6a,11a-dihydrolespedezol A3]
- Decrease of ROS level compared to 6-OHDA-treated cells [6]: 4.5 times
- Effect on ROS levels in 6-OHDA-treated cells [6]: significantly decreased
- Increase in mitochondrial membrane potential [8]: 16%
- EC50 at 24 h (Cytotoxicity, MTT assay): 44 µM
- Increase in percentage of living cells after 6-OHDA treatment versus 6-OHDA-treated cells [7]: 12.9%
- EC50 [3]: 23.7 ± 2.1 µM
- FRAP [4]: 1.60 ± 0.08 mol (Fe^2+)/mol (polyphenolic compound X)
- Effect on percentage of living cells after treatment with PQ [5]: significantly increased
- Increase in percentage of living cells after treatment with PQ ([5]; compound 10 μM): 8%

Molecule: CC(C)=CCC/C(C)=C/Cc1c(O)c(O)cc(C(=O)C(=O)c2ccc(O)cc2O)c1O [Compound 5, bicoloketone]
- Increase in mitochondrial membrane potential [8]: 23%
- EC50 at 24 h (Cytotoxicity, MTT assay): 100 µM
- EC50 [3]: 26.1 ± 3 µM
- FRAP [4]: 0.86 ± 0.04 mol (Fe^2+)/mol (polyphenolic compound X)
- Effect on percentage of living cells after treatment with PQ [5]: significantly increased
- Increase in percentage of living cells after treatment with PQ ([5]; compound 1 and 10 μM): 8–10%

Molecule: CC(C)=CCC/C(C)=C/Cc1c(O)c(O)cc2c1oc1c3ccc(O)cc3oc(=O)c21 [Compound 7, lespedezol A6]
- EC50 at 24 h (Cytotoxicity, MTT assay): > 100 µM
- FRAP [1]: 1.83 ± 0.16 mol (Fe^2+)/mol (polyphenolic compound X)
- EC50 [2]: 25.7 ± 3.4 µM

Molecule: CC(C)=CCC/C(C)=C/Cc1c(O)c(C(=O)c2c(-c3ccc(O)cc3O)oc3c(C/C=C(\C)CCC=C(C)C)c(O)c(O)cc23)cc2c1OC1c3cc(CC=C(C)C)c(O)cc3OCC21 (centres unmarked) [Compound 8, lespebicolin B]
- EC50 at 24 h (Cytotoxicity, MTT assay): > 100 µM
- FRAP [1]: 1.95 ± 0.19 mol (Fe^2+)/mol (polyphenolic compound X)
- EC50 [2]: 26.7 ± 3.8 µM
- Effect on percentage of living cells after treatment with PQ [5]: significantly increased
- Increase in percentage of living cells after treatment with PQ ([5]; compound 1 and 10 μM): 8–10%

Molecule: CC(C)=CCC/C(C)=C/Cc1c(O)c(O)cc(C(=O)C(=O)c2cc(CC=C(C)C)c(O)cc2O)c1O [Compound 11, 5′-isoprenylbicoloketone]
- EC50 at 24 h (Cytotoxicity, MTT assay): 87 µM
- FRAP [1]: 1.45 ± 0.08 mol (Fe^2+)/mol (polyphenolic compound X)
- EC50 [2]: 19.4 ± 2.2 µM

Molecule: C[n+]1ccc(-c2cc[n+](C)cc2)cc1 [PQ, paraquat, reference compound]
- Decrease in TMRM fluorescence ([8]; 1 h exposure of Neuro-2a cells with PQ alone): 23%

Molecule: O=c1c(O)c(-c2ccc(O)c(O)c2)oc2cc(O)cc(O)c12 [Quercetin, reference compound]
- FRAP [1]: 5.11 ± 0.31 mol (Fe^2+)/mol (polyphenolic compound X)
- EC50 [2]: 8.9 ± 0.2 µM

Molecule: COc1c(CC=C(C)C)c(O)cc2c1[C@@H]1Oc3c(cc(C)c(O)c3CC=C(C)C)[C@@H]1CO2 [bicolosin A]
- Neuroprotective effect against glutamate-induced neurotoxicity (neuronal HT22 cells): significant neuroprotective effects

Molecule: medicarpin
- Inhibition of MAO-B (MAO-B): selectively inhibited
- Inhibition of MAO-A (MAO-A): did not effectively inhibit
